Measured values reported in the NIST ThermoML archive (doi:10.1021/acs.jced.5b00242).

How the values were obtained:
[1] = xn = mol fraction of the nth substance listed; settings: 101 kPa, Liquid; for viscosity: Stabinger Viscometer; for mass density: Vibrating tube method
[2] = refractive index (Na D-line) (dimensionless); xn = mol fraction of the nth substance listed; settings: 101 kPa, Liquid, Standard Abbe refractometry

CCn1cc[n+](C)c1.NCCS(=O)(=O)[O-] [1-ethyl-3-methylimidazolium taurinate] + CCn1cc[n+](C)c1.N#C[C-](C#N)C#N
Settings	mass density, [1] [kg/m3]	refractive index, [2]	viscosity, [1] [mPa·s]
293.15 K, x2 = 0	1255	1.5135	760.89
293.15 K, x2 = 0.2503	1207.7	1.51268	250.33
293.15 K, x2 = 0.5001	1164.8	1.51322	84.5
293.15 K, x2 = 0.7496	1124.1	1.51365	35.42
298.15 K, x2 = 0	1251.5	1.51217	514.67
298.15 K, x2 = 0.2503	1204.4	1.51131	180.68
298.15 K, x2 = 0.5001	1161.4	1.51166	64.77
298.15 K, x2 = 0.7496	1120.6	1.5121	28.77
303.15 K, x2 = 0	1248.1	1.51084	359.36
303.15 K, x2 = 0.2503	1201.1	1.50995	133.6
303.15 K, x2 = 0.5001	1158	1.5102	50.77
303.15 K, x2 = 0.7496	1117.2	1.51054	23.71
308.15 K, x2 = 0	1244.8	1.5095	258.04
308.15 K, x2 = 0.2503	1197.9	1.50858	101.33
308.15 K, x2 = 0.5001	1154.7	1.50871	40.59
308.15 K, x2 = 0.7496	1113.8	1.50894	19.84
313.15 K, x2 = 0	1241.6	1.50816	190.44
313.15 K, x2 = 0.2503	1194.7	1.50716	78.59
313.15 K, x2 = 0.5001	1151.4	1.50723	33.04
313.15 K, x2 = 0.7496	1110.4	1.50736	16.61
318.15 K, x2 = 0	1238.6	1.5068	143.31
318.15 K, x2 = 0.2503	1191.7	1.50578	61.69
318.15 K, x2 = 0.5001	1148.2	1.50574	27.27
318.15 K, x2 = 0.7496	1107.2	1.50576	14.44
323.15 K, x2 = 0	1235.5	1.50543	110.35
323.15 K, x2 = 0.2503	1188.5	1.50436	49.65
323.15 K, x2 = 0.5001	1145	1.50428	22.83
323.15 K, x2 = 0.7496	1103.8	1.5042	12.51
328.15 K, x2 = 0	1232.4	1.50403	86.59
328.15 K, x2 = 0.2503	1185.3	1.50296	40.56
328.15 K, x2 = 0.5001	1141.7	1.50286	19.37
328.15 K, x2 = 0.7496	1100.5	1.50267	10.94
333.15 K, x2 = 0	1229.2	1.5027	69.36
333.15 K, x2 = 0.2503	1182.1	1.50159	33.69
333.15 K, x2 = 0.5001	1138.4	1.50142	16.6
333.15 K, x2 = 0.7496	1097.2	1.50113	9.52
338.15 K, x2 = 0	1226.1	1.50136	56.05
338.15 K, x2 = 0.2503	1179	1.50019	28.15
338.15 K, x2 = 0.5001	1135.2	1.49996	14.4
338.15 K, x2 = 0.7496	1093.9	1.49959	8.62
343.15 K, x2 = 0	1223	1.49997	46.1
343.15 K, x2 = 0.2503	1175.9	1.49878	23.86
343.15 K, x2 = 0.5001	1132	1.49854	12.59
343.15 K, x2 = 0.7496	1090.6	1.4981	7.72
348.15 K, x2 = 0	1219.9	1.4986	38.4
348.15 K, x2 = 0.2503	1172.7	1.49742	20.46
348.15 K, x2 = 0.5001	1128.8	1.49709	11.1
348.15 K, x2 = 0.7496	1087.3	1.49657	6.96
353.15 K, x2 = 0	1216.8	1.49726	32.53
353.15 K, x2 = 0.2503	1169.4	1.49603	17.79
353.15 K, x2 = 0.5001	1125.6	1.49563	9.83
353.15 K, x2 = 0.7496	1083.9	1.49505	6.19

CC[n+]1ccn(C)c1.N[C@@H](CO)C(=O)[O-] [3-ethyl-1-methyl-1H-imidazolium L-serinate] + CCn1cc[n+](C)c1.N#C[C-](C#N)C#N
Settings	mass density, [1] [kg/m3]	refractive index, [2]	viscosity, [1] [mPa·s]
293.15 K, x2 = 0	1206.8	1.52699	3796.8
293.15 K, x2 = 0.2502	1177.2	1.52075	586.84
293.15 K, x2 = 0.5005	1141.8	1.51865	168.52
293.15 K, x2 = 0.7497	1112.9	1.51552	42.01
298.15 K, x2 = 0	1203.7	1.52565	2235.5
298.15 K, x2 = 0.2502	1173.6	1.51929	384.17
298.15 K, x2 = 0.5005	1138.4	1.51718	120.68
298.15 K, x2 = 0.7497	1109.3	1.5139	33.37
303.15 K, x2 = 0	1200.5	1.52429	1376.2
303.15 K, x2 = 0.2502	1170.1	1.51784	261.07
303.15 K, x2 = 0.5005	1135	1.51563	88.95
303.15 K, x2 = 0.7497	1105.8	1.51228	26.98
308.15 K, x2 = 0	1197.3	1.52294	882.82
308.15 K, x2 = 0.2502	1166.8	1.51636	183.69
308.15 K, x2 = 0.5005	1131.7	1.51409	67.28
308.15 K, x2 = 0.7497	1102.3	1.51064	22.2
313.15 K, x2 = 0	1194	1.52159	588.27
313.15 K, x2 = 0.2502	1163.5	1.51489	133.41
313.15 K, x2 = 0.5005	1128.4	1.51254	52.28
313.15 K, x2 = 0.7497	1098.9	1.50899	18.36
318.15 K, x2 = 0	1190.9	1.52022	405.12
318.15 K, x2 = 0.2502	1160.5	1.51343	98.94
318.15 K, x2 = 0.5005	1125.1	1.51099	41.25
318.15 K, x2 = 0.7497	1095.6	1.50736	15.72
323.15 K, x2 = 0	1187.8	1.51887	287.6
323.15 K, x2 = 0.2502	1157.3	1.51199	75.39
323.15 K, x2 = 0.5005	1121.8	1.50943	33.28
323.15 K, x2 = 0.7497	1092.2	1.50574	13.48
328.15 K, x2 = 0	1184.7	1.51755	209.91
328.15 K, x2 = 0.2502	1154	1.51051	58.75
328.15 K, x2 = 0.5005	1118.5	1.50784	27.29
328.15 K, x2 = 0.7497	1088.9	1.50408	11.68
333.15 K, x2 = 0	1181.7	1.5162	157.29
333.15 K, x2 = 0.2502	1150.8	1.50902	46.9
333.15 K, x2 = 0.5005	1115.1	1.50632	22.78
333.15 K, x2 = 0.7497	1085.6	1.50253	10.07
338.15 K, x2 = 0	1178.7	1.51486	119.86
338.15 K, x2 = 0.2502	1147.6	1.50755	37.79
338.15 K, x2 = 0.5005	1111.9	1.50475	19.18
338.15 K, x2 = 0.7497	1082.2	1.50093	9.03
343.15 K, x2 = 0	1175.7	1.51353	93.36
343.15 K, x2 = 0.2502	1144.4	1.50611	31.01
343.15 K, x2 = 0.5005	1108.6	1.50324	16.37
343.15 K, x2 = 0.7497	1078.9	1.49932	8.03
348.15 K, x2 = 0	1172.8	1.5122	74.03
348.15 K, x2 = 0.2502	1141.2	1.50459	25.75
348.15 K, x2 = 0.5005	1105.2	1.50173	14.12
348.15 K, x2 = 0.7497	1075.7	1.49774	7.19
353.15 K, x2 = 0	1169.7	1.51084	59.91
353.15 K, x2 = 0.2502	1138	1.50318	21.14
353.15 K, x2 = 0.5005	1101.8	1.50018	12.31
353.15 K, x2 = 0.7497	1072.3	1.49615	6.36
